Experimental data published in ChEMBL document CHEMBL1201862, “PubChem BioAssay data set” (2004).
Active and inactive are the calls of the source.

Experiments:
[1] = cytotoxicity toward NIH3T3 fibroblasts, dose response, counter-screen, cell-based, ATP luminescence, mouse fibroblasts (AID 2010); format: functional;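 note: cells exposed to compound for about 90 hours before reading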
[2] = target: CAAX prenyl protease 1 (Saccharomyces cerevisiae S288c, UniProt P47154); experiment: Ste24 protease inhibitors, dose response, biochemical, S. cerevisiae, plate reader, cherry-pick (AID 488815)
Sequence of CAAX prenyl protease 1 (P47154 whole entry): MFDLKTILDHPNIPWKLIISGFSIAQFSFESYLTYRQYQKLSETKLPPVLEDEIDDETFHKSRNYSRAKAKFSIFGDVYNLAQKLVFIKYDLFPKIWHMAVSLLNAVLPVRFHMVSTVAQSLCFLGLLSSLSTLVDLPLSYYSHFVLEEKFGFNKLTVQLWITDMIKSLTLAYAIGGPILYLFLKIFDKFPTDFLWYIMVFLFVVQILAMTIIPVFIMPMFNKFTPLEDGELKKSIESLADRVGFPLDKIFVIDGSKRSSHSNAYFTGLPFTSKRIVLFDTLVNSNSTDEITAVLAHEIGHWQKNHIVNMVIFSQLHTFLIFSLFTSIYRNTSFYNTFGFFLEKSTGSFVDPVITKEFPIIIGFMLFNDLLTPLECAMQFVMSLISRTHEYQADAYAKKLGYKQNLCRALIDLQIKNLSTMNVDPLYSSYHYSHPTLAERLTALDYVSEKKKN

[3] = target: Trypsin (Sus scrofa, UniProt P00761); experiment: porcine trypsin inhibitors, dose response, selectivity assay for Rce1 protease inhibitor project, biochemical, quenched peptide fluorescence, cherry-pick (AID 488789)
Sequence of Trypsin (P00761 whole entry): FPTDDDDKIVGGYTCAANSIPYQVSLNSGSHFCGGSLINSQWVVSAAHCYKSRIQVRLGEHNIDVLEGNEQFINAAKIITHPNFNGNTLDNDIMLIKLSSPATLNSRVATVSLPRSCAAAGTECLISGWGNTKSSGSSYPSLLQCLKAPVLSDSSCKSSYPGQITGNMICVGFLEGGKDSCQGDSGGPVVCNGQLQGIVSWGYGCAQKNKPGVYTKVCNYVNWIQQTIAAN

[4] = target: T1, CAAX prenyl protease 2 (Homo sapiens, UniProt Q9Y256); experiment: human Rce1 protease inhibitors, dose response, biochemical, yeast membranes, quenched-peptide fluorescence, cherry-pick (AID 588849)
T1 sequence (Q9Y256 whole entry): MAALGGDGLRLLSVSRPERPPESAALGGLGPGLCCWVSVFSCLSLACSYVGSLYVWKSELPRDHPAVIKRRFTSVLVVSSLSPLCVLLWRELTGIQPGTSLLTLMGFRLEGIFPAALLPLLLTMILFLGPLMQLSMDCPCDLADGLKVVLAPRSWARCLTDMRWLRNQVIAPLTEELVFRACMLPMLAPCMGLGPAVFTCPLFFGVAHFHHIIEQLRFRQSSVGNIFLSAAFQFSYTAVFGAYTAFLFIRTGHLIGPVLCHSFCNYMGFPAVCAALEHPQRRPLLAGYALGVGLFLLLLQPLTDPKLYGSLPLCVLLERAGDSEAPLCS

[5] = inhibitors of intracellular T. cruzi replication, confirmation, NIH3T3 host cells, beta-gal luminescence (AID 2044); format: functional, cell-based;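 note: intracellular parasites grown in NIH/3T3 mouse fibroblasts as host cells; luminescent beta-galactosidase reporter signal from transgenic T. cruzi replicating inside host cells; inhibitors lower the luminescence signal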
[6] = test system: HeLa; experiment: HeLa cell cytotoxicity, dose response, cytotoxicity control for MITF activator project, CellTiter-Glo luminescence, cherry-pick samples (AID 540259); format: functional, cell-based; conditions: Homo sapiens
[7] = test system: Jurkat; experiment: antigen receptor-induced NF-kB inhibitors, dose response, Jurkat, luciferase reporter, luminescence, B- and T-cell (AID 489004); format: functional, cell-based; conditions: Homo sapiens;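 note: NF-kB luciferase reporter Jurkat cells stimulated with PMA plus ionomycin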
[8] = NIH-3T3 fibroblast cytotoxicity, dose response, cytotoxicity control, cell-based, fluorescence, Alamar Blue, secondary assay (AID 2327); format: functional;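 note: NIH-3T3 mouse fibroblasts cultured with fluconazole at 8 µg/mL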
[9] = C. albicans growth with fluconazole, confirmation, fluorescence, retest (AID 2467); format: functional, cell-based
[10] = cytotoxicity in HEK-293T NF-kB-Luc cells, dose response, cytotoxicity control for B/T-cell NF-kB inhibitor project, cell-based, uHTS hits (AID 489019); format: functional;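 note: IC50 reflects cytotoxicity as loss of cell viability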

CCc1ccc(NC(=O)c2cnc(N3CCN(c4ccccn4)CC3)c3ccccc23)cc1
EC50 [1]: > 30 µM (not active) | AC50 [2]: 9.95 µM (active) | AC50 [3]: 87.7 µM (active) | AC50 [4]: 29.7 µM (active) | EC50 [5]: 3.14 µM (active)

O=C(N/C=C/c1ccccc1)c1ccccc1
AC50 [6]: 206 µM (active)

CCn1c(C)nc2cc(C(=O)N/N=C(\C)c3ccccc3O)ccc21
AC50 [6]: 126 µM (active)

CN(C)c1ccc(-c2n(C)c3ccccc3[n+]2C)cc1
EC50 [1]: 18.1 µM (active) | IC50 [7]: > 80 µM (inactive) | EC50 [8]: > 150 µM (inactive) | EC50 [9]: 2.18 µM (active) | IC50 [10]: > 80 µM (inactive) | EC50 [5]: 0.582 µM (active)
